As usually defined, the Ki is the equilibrium dissociation constant of an inhibitor or competing ligand from its target. Read a low Ki as higher affinity.

For one molecule, Ki results are on record in publication PMC4130243 (ACS Combinatorial Science, 2014).

Structures are written as SMILES.

The experiment deals with T1, Mdm4 (Homo sapiens, UniProt O15151).
T1 sequence (O15151 1-490): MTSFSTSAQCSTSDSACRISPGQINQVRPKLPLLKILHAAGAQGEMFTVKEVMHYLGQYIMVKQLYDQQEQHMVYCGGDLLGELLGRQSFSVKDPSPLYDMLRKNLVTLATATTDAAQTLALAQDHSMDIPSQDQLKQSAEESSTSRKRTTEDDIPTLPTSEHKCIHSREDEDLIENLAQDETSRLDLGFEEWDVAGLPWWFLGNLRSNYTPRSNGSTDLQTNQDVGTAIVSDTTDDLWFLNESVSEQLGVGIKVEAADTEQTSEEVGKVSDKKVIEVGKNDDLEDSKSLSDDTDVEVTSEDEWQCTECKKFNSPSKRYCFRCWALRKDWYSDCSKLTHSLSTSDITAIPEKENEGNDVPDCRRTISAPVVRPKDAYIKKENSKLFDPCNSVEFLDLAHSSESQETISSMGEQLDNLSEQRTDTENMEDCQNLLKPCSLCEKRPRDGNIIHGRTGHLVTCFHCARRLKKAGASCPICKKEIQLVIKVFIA
The experiment in a line: fluorescence polarization assay, p53-Mdm4. It is filed as binding. The settings on record: FP, resynthesized and purified by flash chromatography. (Fluorescence polarisation rises when a labelled molecule tumbles more slowly, as on binding a larger partner.)

The molecule `O=C(CN(Cc1ccc(Cl)cc1)C(=O)c1cc2ccccc2[nH]1)NC1CCCCC1` [Compound B1, N-(4-Chlorobenzyl)-N-(2-(cyclohexylamino)-2-oxoethyl)-1H-indole-2-carboxamide] had a Ki of 5.5 µM.
